Experimental data: patent publication US11773085B2 (Foghorn Therapeutics Inc., priority 2018, dated 2023)

Molecular target: BRD9 bromodomain (Homo sapiens (Human), UniProt Q9H8M2)
Experiment: BRD9 bromodomain TR-FRET competition binding assay
Settings: 3 nM Flag-BRD9, 3.75 nM biotinylated ligand, 90 minutes at room temperature
Protocol: Cleaved His tag was removed by purification.
A mixture of biotinylated-ligand and SureLight™ Allophycocyanin-Streptavidin (APC-SA, PerkinElmer AD0201) in 50 mM HEPES (pH 7.4), 50 mM NaCl, 1 mM TCEP (pH 7), 0.01% (v/v) Tween-20, 0.01% (w/v) bovine serum albumin was added to a white 384-well PerkinElmer Proxiplate Plus plate. DMSO or 3-fold serially diluted compounds were then added to the Proxiplate followed by addition of Flag-BRD9. After a 10 minute incubation at room temperature, Eu-W1024 anti-FLAG (PerkinElmer, AD0273) was added.

| IC50 | Structure (SMILES) |
| --- | --- |
| > 1000 nM | Cn1cc(C(=O)NCc2ccccc2)c2ccncc2c1=O [Compound B3] |
| > 1000 nM | Cn1cc(C(=O)NCc2cccc3ccccc23)c2cn[nH]c2c1=O [Compound B4] |
| > 1000 nM | Cn1cc(C(=O)NCc2ccccc2)c2cn[nH]c2c1=O [Compound B5] |
| > 1000 nM | CCNC(=O)c1cn(C)c(=O)c2[nH]ncc12 [Compound B6] |
| > 1000 nM | CN(Cc1ccccc1)C(=O)c1cn(C)c(=O)c2[nH]ncc12 [Compound B7] |
| > 1000 nM | Cn1cc(C(=O)Nc2ccccc2)c2cn[nH]c2c1=O [Compound B8] |
| > 1000 nM | CCn1cc(C(=O)NCc2ccccc2)c2cn[nH]c2c1=O [Compound B9] |
| > 1000 nM | CCCn1cc(C(=O)NCc2ccccc2)c2cn[nH]c2c1=O [Compound B10] |
| > 1000 nM | CCN(C)C(=O)c1cn(C)c(=O)c2[nH]ncc12 [Compound B11] |
| > 1000 nM | CC(C)n1cc(C(=O)NCc2ccccc2)c2cn[nH]c2c1=O [Compound B12] |
| > 1000 nM | O=C(NCc1ccccc1)c1cn(CC2CC2)c(=O)c2[nH]ncc12 [Compound B13] |
| 10 to 100 nM | CNCc1ccc(-c2cn(C)c(=O)c3[nH]ccc23)cc1 [Compound B14] |
| 10 to 100 nM | C/C=C/Cn1cc(-c2ccc(CNC)c(C#N)c2)c2cc(C)[nH]c2c1=O [Compound B15] |
| 100 to 1000 nM | CC(=O)c1cc(-c2cccc3nccn23)c2cc(N3CCOCC3)ccn12 [Compound B16, 1-(1-[imidazo[1,2-a]pyridin-5-yl]-7-(morpholin-4-yl)indolizin-3-yl)ethan-1-one] |
| 100 to 1000 nM | CC(=O)c1cc(-c2cccc3nccn23)c2cc(N3CCN(C)CC3)ccn12 [Compound B17, 1-(1-[imidazo[1,2-a]pyridin-5-yl]-7-(4-methylpiperazin-1-yl)indolizin-3-yl)ethan-1-one] |
| 10 to 100 nM | CNCc1c(OC)cc(-c2cn(C3CC3)c(=O)c3cnccc23)cc1OC [Compound B18, 2-cyclopropyl-4-[3,5-dimethoxy-4-[(methylamino)methyl]phenyl]-2,7-naphthyridin-1-one] |
| 100 to 1000 nM | CC(=O)c1cc(-c2cccc3nccn23)c2cc(N3CCNCC3)ccn12 [Compound B19, 1-(1-[imidazo[1,2-a]pyridin-5-yl]-7-(piperazin-1-yl)indolizin-3-yl)ethan-1-one] |
| < 10 nM | COc1cc(-c2cn(C)c(=O)c3cnccc23)cc(OC)c1CN1CC(N)C1 [Compound B20, 4-[4-[(3-aminoazetidin-1-yl)methyl]-3,5-dimethoxyphenyl]-2-methyl-1,2-dihydro-2,7-naphthyridin-1-one] |
| 10 to 100 nM | COc1cc(-c2cn(C)c(=O)c3cnccc23)cc(OC)c1CN1CC(C(=O)O)C1 [Compound B21, 1-[[2,6-dimethoxy-4-(2-methyl-1-oxo-1,2-dihydro-2,7-naphthyridin-4-yl)phenyl]methyl]azetidine-3-carboxylic acid] |
| 10 to 100 nM | COc1cc(-c2cn(C3CC3)c(=O)c3cnccc23)cc(OC)c1CN(C)C [Compound B22, 2-cyclopropyl-4-[4-[(dimethylamino)methyl]-3,5-dimethoxyphenyl]-2,7-naphthyridin-1-one] |
| > 1000 nM | COc1cc(C#N)ccc1S(=O)(=O)Nc1ccc2c(c1)cc(C)c(=O)n2C [Compound B26] |
| 10 to 100 nM | COc1cc(-c2cc(N)c(=O)n(C)c2)cc(OC)c1CN(C)C [Compound B28, 3-amino-5-(4-((dimethylamino)methyl)-3,5-dimethoxyphenyl)-1-methylpyridin-2(1H)-one] |

| IC50 | Structure (SMILES) |
| --- | --- |
| 100 to 1000 nM | COc1cc(-c2cc(NC(C)=O)c(=O)n(C)c2)cc(OC)c1CN(C)C [Compound B29, N-(5-[4-[(dimethylamino)methyl]-3,5-dimethoxyphenyl]-1-methyl-2-oxo-1,2-dihydropyridin-3-yl)acetamide] |
| 100 to 1000 nM | CCC(=O)Nc1cc(-c2cc(OC)c(CN(C)C)c(OC)c2)cn(C)c1=O [Compound B30, N-(5-[4-[(dimethylamino)methyl]-3,5-dimethoxyphenyl]-1-methyl-2-oxo-1,2-dihydropyridin-3-yl)propanamide] |
| > 1000 nM | CCC(=O)Nc1c(C)c(-c2cc(OC)c(CN(C)C)c(OC)c2)cn(C)c1=O [Compound B31, N-(5-[4-[(dimethylamino)methyl]-3,5-dimethoxyphenyl]-1,4-dimethyl-2-oxo-1,2-dihydropyridin-3-yl)propanamide] |
| 10 to 100 nM | CCOC(=O)Nc1cc(-c2cc(OC)c(CN(C)C)c(OC)c2)cn(C)c1=O [Compound B32] |
| 100 to 1000 nM | COc1cc(-c2cn(C)c(=O)c3nccnc23)cc(OC)c1CN(C)C [Compound B33, 8-[4-[(dimethylamino)methyl]-3,5-dimethoxyphenyl]-6-methylpyrido[3,4-b]pyrazin-5-one] |
| < 10 nM | CNC(=O)C1CN(Cc2c(OC)cc(-c3cn(C)c(=O)c4cnccc34)cc2OC)C1 [Compound B34, 1-[[2,6-dimethoxy-4-(2-methyl-1-oxo-1,2-dihydro-2,7-naphthyridin-4-yl)phenyl]methyl]-N-methylazetidine-3-carboxamide formic acid] |
| 10 to 100 nM | CSc1cc(-c2cn(C)c(=O)c3cnccc23)ccc1CN(C)C [Compound B36, 4-[4-[(dimethylamino)methyl]-3-(methylsulfanyl)phenyl]-2-methyl-1,2-dihydro-2,7-naphthyridin-1-one] |
| 100 to 1000 nM | CN(C)Cc1ccc(-c2cn(C)c(=O)c3cnccc23)cc1S(C)(=O)=O [Compound B37, 4-[4-[(dimethylamino)methyl]-3-methanesulfonylphenyl]-2-methyl-2,7-naphthyridin-1-one] |
| < 10 nM | COc1cc(-c2cn(C)c(=O)c3cnccc23)cc(OC)c1CN(C)S(C)(=O)=O [Compound B38, N-[[2,6-dimethoxy-4-(2-methyl-1-oxo-2,7-naphthyridin-4-yl)phenyl]methyl]-N-methylmethanesulfonamide] |
| < 10 nM | COc1cc(-c2cn(C)c(=O)c3cnccc23)cc(OC)c1CN(C)S(=O)(=O)C1CC1 [Compound B39, N-[[2,6-dimethoxy-4-(2-methy-1-oxo-2,7-naphthyridin-4-yl)phenyl]methyl]-N-methyl cyclopropanesulfonamide] |
| < 10 nM | COc1cc(-c2cn(C)c(=O)c3cnccc23)cc(OC)c1CN(C)S(=O)(=O)CC(C)C [Compound B40, N-[[2,6-dimethoxy-4-(2-methyl-1-oxo-2,7-naphthyridin-4-yl)phenyl]methyl]-N,2-dimethylpropane-1-sulfonamide] |
| 10 to 100 nM | COc1cc(-c2cn(C)c(=O)c3cnccc23)cc(OC)c1CN1CC(CC(=O)O)C1 [Compound B41, 2-(1-[[2,6-dimethoxy-4-(2-methyl-1-oxo-1,2-dihydro-2,7-naphthyridin-4-yl)phenyl]methyl]azetidin-3-yl)acetic acid formic acid] |
| > 1000 nM | CCOC(=O)Nc1c(C)c(-c2cc(OC)c(CN(C)C)c(OC)c2)cn(C)c1=O [Compound B42, ethyl N-(5-[4-[(dimethylamino)methyl]-3,5-dimethoxyphenyl]-1,4-dimethyl-2-oxo-1,2-dihydropyridin-3-yl)carbamate] |
| < 10 nM | COc1cc(-c2cn(C)c(=O)c3[nH]ncc23)cc(OC)c1CN(C)C [Compound B43, 4-(4-((dimethyllamino)methyl)-3,5-dimethoxyphenyl)-6-methyl-1,6-dihydro-7H-pyrazolo[3,4-c]pyridin-7-one] |
| < 10 nM | COc1cc(-c2cn(C)c(=O)c3cnccc23)cc(OC)c1CN1CC(C(=O)NCCCCCCCCNc2ccccc2)C1 [Compound B44, 1-[[2,6-dimethoxy-4-(2-methyl-1-oxo-1,2-dihydro-2,7-naphthyridin-4-yl)phenyl]methyl]-N-[8-(phenylamino)octyl]azetidine-3-carboxamide] |
| 10 to 100 nM | COc1cc(-c2cn(C)c(=O)c3cnccc23)cc(OC)c1CN1CC[C@H]1C(=O)O [Compound B45, (2S)-1-[[2,6-dimethoxy-4-(2-methyl-1-oxo-2,7-naphthyridin-4-yl)phenyl]methyl] azetidine-2-carboxylic acid] |
| 10 to 100 nM | COc1cc(-c2cn(C)c(=O)c3[nH]cnc23)cc(OC)c1CN(C)C [Compound B47, 7-[4-[(dimethylamino)methyl]-3,5-dimethoxyphenyl]-5-methyl-3H-imidazo[4,5-c]pyridin-4-one formic acid] |
| 100 to 1000 nM | COc1cc(-c2cc(C)c(=O)n(C)c2)cc(OC)c1CN1CC(C(=O)O)C1 [Compound B48, 1-[[4-(1,5-dimethyl-6-oxopyridin-3-yl)-2,6-dimethoxyphenyl]methyl]azetidine-3-carboxylic acid] |
| 10 to 100 nM | COc1cc(-c2cn(C)c(=O)c3cnccc23)cc(OC)c1CN(C)S(=O)(=O)C(C)C [Compound B49, N-[[2,6-dimethoxy-4-(2-methyl-1-oxo-2,7-naphthyridin-4-yl)phenyl]methyl]-N-methyl propane-2-sulfonamide] |
| 10 to 100 nM | COc1cc(-c2cn(C)c(=O)c3cnncc23)cc(OC)c1CN(C)C [Compound B52, 8-[4-[(dimethylamino)methyl]-3,5-dimethoxyphenyl]-6-methyl-5H,6H-pyrido[3,4-d]pyridazin-5-one] |
| 10 to 100 nM | CNCc1c(OC)cc(-c2cn(C)c(=O)c3cnccc23)cc1OC [Compound B53, 4-[3,5-dimethoxy-4-[(methylamino)methyl]phenyl]-2-methyl-1,2-dihydro-2,7-naphthyridin-1-one] |
| < 10 nM | COc1cc(-c2cn(C)c(=O)c3cnccc23)cc(SC)c1CN(C)C [Compound B54, 4-[4-[(dimethylamino)methyl]-3-methoxy-5-(methylsulfanyl)phenyl]-2-methyl-1,2-dihydro-2,7-naphthyridin-1-one] |
